Assay results: patent publication US5716971A, “Pyridine derivatives, their production and use” (Takeda Chemical Industries, Ltd., priority 1993, dated 1998)
Where two headings read alike, the source gives them in different places.

Columns and labels:
anesthetized dogs = assay: Action of increasing coronary blood flow in anesthetized dogs (administration into coronary artery); assay type: in vivo, dog; conditions: injected into coronary artery, 30 ug/day, anesthetized Beagle dogs
Experimental: Action of increasing coronary blood flow in anesthetized dogs (Administration into coronary artery) Method: Beagle dogs (10 to 12 kg body weight) were anesthetized with pentobarbital and subjected to thoractomy under artificial respiration. A by-pass fitted with an electromagnetic flowmeter (Nippon Koden) was prepared between the left coronary artery and left carotid artery,and the volume of coronary blood flow was measured. […]
Maximal change rate against the value measured before the administration (% of basal flow) and the duration period [shown in terms of the time (T1/2) in which the activity is reduced to half] are shown in Table 67. As a result, it is apparent that the compounds of this invention show action of increasing coronary blood flow.

specimen of rat aorta [1] = assay: Vasorelaxation activity in a specimen of rat aorta: contraction caused by KCl; conditions: read-out: constriction inhibitory ratio
Experimental: (§1) Male Wister rats (10 to 13 week old were employed for the experiment. After dehematization, the aorta was excised and a ring specimen (5 mm length) was prepared. The specimen was suspended in a bath filled with oxygenated (95% O2 -5%CO2) Krebs solution (36° C.). The ring specimen was fixed at one end and the other end was connected to a transducer (Nippon Koden) for recording tension to determine the tension. After a stabilization period of one hour, TEA (30-45 mM) and BaCl2 (0.3 mM) were added to the bath to cause vasoconstriction. After the constriction had reached a steady state (after about 15 minutes), a test compound was added to the bath and its relaxation activity was measured.
Vasorelaxation activity in a specimen of rat aorta Effects on contraction caused by potassium chloride (KCl)
The same experiment was conducted as in Experiment 1, excepting the use of KCl ([…]) instead of TEA and BaCl2

[2] = system: Spontaneously hypertensive rats; assay: Hypotensive activity in rats (Tail Cuff Method), oral; assay type: in vivo; conditions: Rattus norvegicus, SHR
Experimental: Hypotensive activity in rats (Tail Cuff Method)
Spontaneously hypertensive rats (SHR, male, 20 to 23 week old) were warmed up to 36° C. The blood pressure at the tail aorta was measured by the tail cuff method. The blood pressure was measured three times, i.e. before oral administration of the test compound, two hours after the administration and five hours after the administration. The test compound was orally administered in the state of a suspension in gum arabic.
Maximal, hypotensive effect against the blood pressure before the administration is shown as % pre. in Table 66. As a result, it is apparent that the compounds of this invention show hypotensive activity.

specimen of rat aorta [3] = assay: Vasorelaxation activity in a specimen of rat aorta: contraction caused by TEA and BaCl2; conditions: TEA (30-45 mM) and BaCl2 (0.3 mM) contraction, read-out: constriction inhibitory ratio
Experimental: Vasorelaxation activity in a specimen of rat aorta Effects on contraction caused by tetraethylammonium chloride (TEA) and barium chloride (BaCl2)
as §1

[4] = after 2 hours, read-out: Maximal hypotensive effect against blood pressure before administration (% pre.), after 2 hours
[5] = after 5 hours, read-out: Maximal hypotensive effect against blood pressure before administration (% pre.), after 5 hours

Row | Structure (SMILES) | duration (T1/2): time in which the activity is reduced to half (anesthetized dogs) | inhibition at 1 µM (specimen of rat aorta [1]) | inhibition at 3 µM (specimen of rat aorta [1]) | inhibition in vivo at 10 mg/kg [2, 4] | inhibition in vivo at 10 mg/kg [2, 5] | inhibition at 1 µM (specimen of rat aorta [3]) | inhibition at 3 µM (specimen of rat aorta [3]) | inhibition at 10 µM (specimen of rat aorta [1]) | inhibition at 10 µM (specimen of rat aorta [3]) | inhibition in vivo at 3 mg/kg [2, 4] | inhibition in vivo at 3 mg/kg [2, 5]
1 | CC(C)(C)O/N=C(/c1cc(Cl)c(F)cc1O)c1ncccc1O [Compound 36, (Z)-2-(5-chloro-4-fluoro-2-hydroxybenzoyl)-3-hydroxypyridine O-t-butyloxime] | 4.8 min | 0% | 4% | 42% | 30% | 81% | 80% |  |  |  | 
2 | CC(C)(C)O/N=C(/c1cc(F)c(F)cc1O)c1ncccc1O [Compound 34, (Z)-2-(4,5-difluoro-2-hydroxybenzoyl)-3-hydroxypyridine O-t-butyloxime] | 3.7 min | 4% | 18% | 27% | 10% | 54% | 59% |  |  |  | 
3 | Cc1cc(O)c(/C(=N/OC(C)(C)C)c2c(O)ccc[n+]2[O-])cc1Br [Compound 67, (Z)-2-(5-bromo-2-hydroxy-4-methylbenzoyl)-3-hydroxypyridine N-oxide O-t-butyloxime] | 8.9 min | 0% | 0% | 28% | 35% | 32% | 89% | 0% | 100% |  | 
4 | CC(C)(C)O/N=C(/c1cc(F)c(Cl)cc1O)c1ncccc1O [Compound 40, (Z)-2-(4-chloro-5-fluoro-2-hydroxybenzoyl)-3-hydroxypyridine O-t-butyloxime] | 2.8 min | 0% | 0% | 30% | 11% | 85% | 72% |  |  |  | 
5 | CC(C)(C)O/N=C(/c1cc(Br)c(Cl)cc1O)c1cccc[n+]1[O-] [Compound 101, (Z)-2-(5-bromo-4-chloro-2-hydroxybenzoyl)pyridine N-oxide O-t-butyloxime] | 7.9 min | 3% | 25% |  |  | 71% | 65% |  |  | 10% | 11%
6 | CC(C)(C)O/N=C(/c1cc(Br)c(Cl)cc1O)c1ncccc1O [Compound 38, (Z)-2-(5-bromo-4-chloro-2-hydroxybenzoyl)-3-hydroxypyridine O-t-butyloxime] | 4.7 min | 0% | 1% | 29% | 13% | 92% | 100% |  |  |  | 
7 | CC(C)(C)O/N=C(/c1cc(Br)ccc1O)c1c(O)ccc[n+]1[O-] [Compound 63, (Z)-2-(5-bromo-2-hydroxybenzoyl)-3-hydroxypyridine N-oxide O-t-butyloxime] | 2.4 min | 0% | 0% | 42% | 54% | 13% | 61% | 0% | 100% |  | 
8 | CC(C)(C)O/N=C(/c1cc(Cl)c(Cl)cc1O)c1ncccc1O [Compound 32, (Z)-2-(4,5-dichloro-2-hydroxybenzoyl)-3-hydroxypyridine O-t-butyloxime] | 3.0 min | -2% | 11% | 19% | 18% | 87% | 100% |  |  |  | 
